Key:
[1] = tested on: Jurkat/NFATLuc.3C7 cells + RPMI-8226 cells; test: Jurkat/NFATLuc reporter bioassay with RPMI-8226 cells; type: cell-based; conditions: highest RLU / lowest RLU
Method: (§1) Activity of the anti-BCMA×anti-CD3 bispecific antibodies were assessed in a Jurkat/NFATLuc reporter bioassay utilizing several cell lines with varying levels of BCMA surface expression. The Jurkat cells were engineered to express an NFAT-luciferase reporter (Jurkat/NFATLuc.3C7), and 50,000 Jurkat reporter cells were combined with 50,000 BCMA positive (Daudi, MM1-S, NCI-H929, OPM-2, RPMI-8226, MOLP-8, or Raji) or BCMA negative (HEK293) cells in Thermo Nunclon delta 96 well white microwell plates (Thermo Scientific, Cat #136102) in 50 ul of assay media (RPMI media with 10% FBS and 1% P/S/G). Three-fold serial dilutions of the BCMA×CD3 bispecific antibodies (mAb25441 D or mAb25442D), or a bivalent anti-BCMA antibody (mAb21581) were immediately added in 50 μL of assay buffer. The plates were gently agitated and incubated in a 37° C., 5% CO2 incubator for 4-6 hours. NFAT-Luciferase activity was determined using Promega One-Glo (Cat #E6130) and a Perkin Elmer Envision plate reader. RLU were plotted in GraphPad Prism using a four-parameter logistic equation over a 12-point response curve to calculate EC50 values. […] The signal to noise (S:N) is determined by taking the ratio of the highest RLU on the curve to the lowest.

[2] = tested on: Jurkat/NFATLuc.3C7 cells + Raji cells; test: Jurkat/NFATLuc reporter bioassay with Raji cells; type: cell-based; conditions: highest RLU / lowest RLU
Method: as §1

[3] = tested on: Jurkat/NFATLuc.3C7 cells + HEK293 (BCMA negative) cells; test: Jurkat/NFATLuc reporter bioassay with HEK293 cells; type: cell-based; conditions: highest RLU / lowest RLU
Method: as §1

[4] = tested on: established BCMA-expressing NCI-H929 tumors; test: Established NCI-H929 + PBMC xenogenic tumor model, treatment from day 5 (Example 12); type: in vivo, mouse; conditions: for Average Tumor Size (mm3) ± SEM on Day 5: Day 5 (day of first dose)
Method: To determine the in vivo efficacy of anti-BCMA×anti-CD3 bispecific antibodies (Abs), a xenogenic tumor study was performed. Immunodeficient NOD.Cg-Prkdc^scidIl2rg^tm1Wji/SzJ (NSG) mice were subcutaneously implanted with a mixture of 10×10^6 BCMA-expressing NCI-H929 human multiple myeloma tumor cells and 0.5×10^6 human peripheral blood mononuclear cells (PBMC) isolated from a normal, healthy donor. The tumors were allowed to grow and establish for 5 days until they were approximately 70 mm^3 in size. […] The mice were administered these Abs twice per week for a total of seven doses, and tumor growth was assessed over 55 days. While BCMA^+ NCI-H929 tumors grew similarly in the vehicle- and CD3-binding control-treated mice, both BCMA×CD3 Abs that were tested shrank established tumors and prevented the growth of tumors in a dose-dependent manner in vivo.
Implantation and measurement of xenogenic tumors: NSG mice were subcutaneously implanted with a mixture of 10×10^6 BCMA-expressing NCI-H929 multiple myeloma cells and 0.5×10^6 PBMC derived from a normal, healthy donor. The tumors were allowed to grow and establish for 5 days until they were approximately 70 mm^3 in size. […] The mice were administered Abs twice per week for a total of seven doses. Tumor growth was measured with calipers twice per week for the duration of the experiment.
Calculation of xenogenic tumor growth and inhibition: In order to determine tumor volume by external caliper, the greatest longitudinal diameter (length in mm) and the greatest transverse diameter (width in mm) were determined. Tumor volumes based on caliper measurements were calculated by the formula: Volume (mm^3) […] (length×width^2)/2.

[5] = tested on: BCMA+ OPM-2-luciferase tumors; test: OPM-2-luciferase intravenous xenogenic tumor model, BLI (Example 15); type: in vivo, mouse
Method: (§2) To determine the in vivo efficacy of anti-BCMA×anti-CD3 bispecific antibodies (Abs), a xenogenic tumor study was performed. On day 0, immunodeficient NOD.Cg-Prkdc^scidIl2rg^tm1Wji/SzJ (NSG) mice were intravenously administered 2×10^6 BCMA^+ OPM-2 human multiple myeloma tumor cells that were engineered to also express firefly luciferase (OPM-2-luciferase cells). On day 10, the mice were intraperitoneally injected with 4×10^6 human peripheral blood mononuclear cells (PBMC) from a normal, healthy donor. […] The mice were administered these Abs twice more on days 25 and 28, for a total of three doses. Tumor growth was assessed through day 61 by measuring tumor bioluminescence (BLI) in anesthetized animals. As a positive control, a group of mice (n=5) was given only OPM-2-luciferase cells, but not PBMC or antibody.
as §2, with “Implantation and measurement” for “To determine the in vivo efficacy”, “of” for “of anti-BCMA×anti-CD3 bispecific antibodies (Abs), a”, “tumors:” for “tumor study was performed.”
Measurement of xenogenic tumor growth: BLI imaging was used to measure tumor burden. Mice were injected IP with 150 mg/kg of the luciferase substrate D-luciferin suspended in PBS. Five minutes after this injection, BLI imaging of the mice was performed under isoflurane anesthesia using the Xenogen IVIS system. Image acquisition was carried out with the field of view at D, subject height of 1.5 cm, and medium binning level with automatic exposure time determined by the Living Image Software. BLI signals were extracted using Living Image software: regions of interest were drawn around each tumor mass and photon intensities were recorded as p/s/cm2/sr.

REGN5459: anti-BCMA×anti-CD3 bispecific antibody: BCMA HCVR of mAb21581 (SEQ 66), CD3 HCVR of mAb7221G20 (SEQ 98), common LCVR SEQ 82
S:N [1]: 42
S:N [2]: 78
S:N [3]: 1
Average Tumor Size (mm3) ± SEM on Day 5 ([4]; 0.04 mg/kg): 74.9 ± 6.4 mm3
Average Tumor Size (mm3) ± SEM on Day 8 ([4]; 0.04 mg/kg): 152.3 ± 20.0 mm3
Average Tumor Size (mm3) ± SEM on Day 12 ([4]; 0.04 mg/kg): 462.5 ± 57.7 mm3
Average Tumor Size (mm3) ± SEM on Day 15 ([4]; 0.04 mg/kg): 1094.2 ± 78.9 mm3
Average Tumor Size (mm3) ± SEM on Day 19 ([4]; 0.04 mg/kg): 2412.5 ± 184.6 mm3
Average Tumor Size (mm3) ± SEM on Day 22 ([4]; 0.04 mg/kg): 3285.9 ± 227.3 mm3
Average Tumor Size (mm3) ± SEM on Day 5 ([4]; 0.4 mg/kg): 69.5 ± 4.1 mm3
Average Tumor Size (mm3) ± SEM on Day 8 ([4]; 0.4 mg/kg): 171.9 ± 23.2 mm3
Average Tumor Size (mm3) ± SEM on Day 12 ([4]; 0.4 mg/kg): 233.8 ± 63.5 mm3
Average Tumor Size (mm3) ± SEM on Day 15 ([4]; 0.4 mg/kg): 327.2 ± 135.6 mm3
Average Tumor Size (mm3) ± SEM on Day 19 ([4]; 0.4 mg/kg): 606.2 ± 288.8 mm3
Average Tumor Size (mm3) ± SEM on Day 22 ([4]; 0.4 mg/kg): 815.4 ± 387.1 mm3
Average Tumor Size (mm3) ± SEM on Day 27 ([4]; 0.4 mg/kg): 1849.9 ± 903.1 mm3
Average Tumor Size (mm3) ± SEM on Day 30 ([4]; 0.4 mg/kg): 661.8 ± 490.1 mm3
Average Tumor Size (mm3) ± SEM on Day 35 ([4]; 0.4 mg/kg): 996.8 ± 771.0 mm3
Average Tumor Size (mm3) ± SEM on Day 40 ([4]; 0.4 mg/kg): 375.6 ± 375.6 mm3
Average Tumor Size (mm3) ± SEM on Day 55 ([4]; 0.4 mg/kg): 0 ± 0 mm3
Average Tumor Size (mm3) ± SEM on Day 5 ([4]; 4 mg/kg): 61.8 ± 5.2 mm3
Average Tumor Size (mm3) ± SEM on Day 8 ([4]; 4 mg/kg): 45.8 ± 9.8 mm3
Average Tumor Size (mm3) ± SEM on Day 15 ([4]; 4 mg/kg): 0 ± 0 mm3
Average Tumor Size (mm3) ± SEM on Day 19 ([4]; 4 mg/kg): 0 ± 0 mm3
Average Tumor Size (mm3) ± SEM on Day 22 ([4]; 4 mg/kg): 0 ± 0 mm3
Average Tumor Size (mm3) ± SEM on Day 27 ([4]; 4 mg/kg): 0 ± 0 mm3
Average Tumor Size (mm3) ± SEM on Day 30 ([4]; 4 mg/kg): 0 ± 0 mm3
Average Tumor Size (mm3) ± SEM on Day 35 ([4]; 4 mg/kg): 0 ± 0 mm3
Average Tumor Size (mm3) ± SEM on Day 40 ([4]; 4 mg/kg): 0 ± 0 mm3
Average Tumor Size (mm3) ± SEM on Day 55 ([4]; 4 mg/kg): 0 ± 0 mm3
Radiance [p/s/cm2^2/sr] 5 days post-implantation (mean ± SEM) ([5]; 0.4 mg/kg group, 5 days post-implantation (before first dose on day 21)): 5.09E+05 ± 3.56E+04 p/s/cm2^2/sr
Radiance [p/s/cm2^2/sr] 11 days post-implantation (mean ± SEM) ([5]; 0.4 mg/kg group, 11 days post-implantation (before first dose on day 21)): 6.45E+05 ± 2.39E+04 p/s/cm2^2/sr
Radiance [p/s/cm2^2/sr] 20 days post-implantation (mean ± SEM) ([5]; 0.4 mg/kg group, 20 days post-implantation (before first dose on day 21)): 2.13E+06 ± 1.69E+05 p/s/cm2^2/sr
tumor burden (in words) ([5]; 0.4 mg/kg on days 21, 25 and 28): reduced tumor burdens to background levels in the majority of animals
Radiance [p/s/cm2^2/sr] 26 days post-implantation (mean ± SEM) ([5]; 0.4 mg/kg, 26 days post-implantation): 1.28E+06 ± 7.36E+05 p/s/cm2^2/sr
Radiance [p/s/cm2^2/sr] 31 days post-implantation (mean ± SEM) ([5]; 0.4 mg/kg, 31 days post-implantation): 1.98E+06 ± 1.36E+06 p/s/cm2^2/sr
Radiance [p/s/cm2^2/sr] 34 days post-implantation (mean ± SEM) ([5]; 0.4 mg/kg, 34 days post-implantation): 4.24E+06 ± 3.69E+06 p/s/cm2^2/sr
Radiance [p/s/cm2^2/sr] 38 days post-implantation (mean ± SEM) ([5]; 0.4 mg/kg, 38 days post-implantation): 3.21E+06 ± 2.52E+06 p/s/cm2^2/sr
Radiance [p/s/cm2^2/sr] 40 days post-implantation (mean ± SEM) ([5]; 0.4 mg/kg, 40 days post-implantation): 3.84E+06 ± 3.34E+06 p/s/cm2^2/sr
Radiance [p/s/cm2^2/sr] 47 days post-implantation (mean ± SEM) ([5]; 0.4 mg/kg, 47 days post-implantation): 7.34E+05 ± 2.62E+04 p/s/cm2^2/sr
Radiance [p/s/cm2^2/sr] 54 days post-implantation (mean ± SEM) ([5]; 0.4 mg/kg, 54 days post-implantation): 6.41E+05 ± 5.96E+04 p/s/cm2^2/sr
Radiance [p/s/cm2^2/sr] 61 days post-implantation (mean ± SEM) ([5]; 0.4 mg/kg, 61 days post-implantation): 6.03E+05 ± 5.29E+04 p/s/cm2^2/sr

Reference: patent US20260008862A1, “Bispecific Anti-BCMA x Anti-CD3 Antibodies and Uses Thereof” (Regeneron Pharmaceuticals, Inc., priority 2018, published 2026)
